Results: patent US20250382657A1, “METHODS FOR MAPPING BINDING SITES OF COMPOUNDS” (Cambridge Enterprise Limited, priority 2022, published 2025)
Blank lines part the entries; values can stand above or below the compound they belong to.

How the values were obtained:
DNA G-quadruplex [1] = assay: PDS Chemmap after treatment of live K562 cells with unmodified PDS (competition); assay type: cell-based, human; conditions: unmodified PDS 4 μM for 3 hr
Description: (§1) Cell preparation. U-2 OS cells were detached using accutase and immediately quenched using complete culture media. U-2 OS and K562 suspension cells were harvested by centrifugation and fixed in 0.1% formaldehyde (Thermo Scientific, 28906) in PBS for 2 min at room temperature, followed by quenching with glycine to a final concentration of 75 mM. Fixed cells were collected by centrifugation at 600×g for 4 min, followed by resuspension in cold wash buffer (20 mM HEPES pH7.5, 150 mM NaCl and 0.5 mM spermidine (Sigma, S0266)) in nuclease-free water supplemented with a complete Protease Inhibitor, EDTA-free (Sigma, 11873580001). (Note: For Chemmap of G4 ligands NaCl was replaced by equivalent concentrations of KCl in all buffers to maintain G4 stability. For optimal results, the concentration of cells needs to be adjusted based on target abundance and relative affinity of the probes. We employed cells at 1500 cells/μL (JQ1-bio) and 6000 cells/μL (G4 ligands and biotinylated doxorubicin))
(§2) Probe-1st Ab complex assembly. Compound stock solution in DMSO was diluted to 10 μM in antibody buffer (2 mM EDTA, 0.1% BSA (Sigma, A8577), 0.05% digitonin (EMD Millipore, 300410) in wash buffer). […]

DNA G-quadruplex [2] = assay: Chemmap genome-wide mapping of G4 ligand binding sites (PDS, PhenDC3); design: species or system human; conditions: K562 cells; biotinylated probes
Description: as §1, §2

dsDNA = assay: FRET-melting assay; assay type: binding; conditions: 1 μM; negative control dsDNA; n=2
Description: 400 nM FAM-TAMRA dual-labelled oligonucleotides (Biomers) were annealed in assay buffer (60 mM potassium cacodylate, pH=7.4) at 95° C. for 5 min followed by gradually cooling to 20° C. A series of probe concentrations were prepared in a 8-well strip tube: 150 μL of 6 μM ligand in assay buffer was prepared as the initial concentration. Subsequent serial dilutions were made by adding 100 μL of probe solutions to 50 μL of assay buffer, resulting in 12 concentrations including a control (1% DMSO). 25 μL per solutions were transferred to 96-well plate, followed by adding 25 μL of annealed oligonucleotide solutions to each well. The plate was then sealed with an adhesive transparent cover and shaken gently for 10 min at room temperature. Measurements of restoring FAM signal were recorded on a Bio-Rad CFX96 Touch Real-Time PCR Detection System employing a temperature gradient from 25° C. to 95° C. at 0.5° C./min. Melting temperatures were determined by the first derivative maxima of relative fluorescence unit (RFU) value against […], and ΔTm was calculated by baseline correction of melting temperatures subtracting control group. A one-site binding model in GraphPad Prism 7 was utilised to fit FRET Tm curves. Mean was calculated from two replicates.

BRD4 [3] = biological target: T1, BRD4 (Homo sapiens, UniProt O60885); assay: Chemmap genome-wide mapping of JQ1 binding sites, compared with BRD4 CUT&Tag; conditions: 150,000 K562 cells; JQ1-bio probe
T1 construct: U-2 OS and K562 suspension cells were harvested by centrifugation and fixed in 0.1% formaldehyde; endogenous in cells; host or cells: K562 (human leukaemia) and U-2 OS cells
Description: BRD4 CUT&Tag was performed as described before (H.S. Kaya-Okur, et al. Nat. Protoc., 15 (2020) e23641). Briefly, cells were incubated with activated concanavalin A-coated magnetic beads (Bangs Labs, BP531). The bead-bound cells were permeabilized and incubated with anti-BRD4 (E2A7X) rabbit antibody (Cell Signalling Technology, 13440), followed by rabbit anti-mouse IgG antibody (Antibodies-Online, ABIN101961, RRID:AB_10775589). Diluted pA-Tn5 adapter complex was then added followed by the tagmentation reaction. Extracted DNA fragments were used for library preparation and Illumina sequencing.

genomic DNA = assay: Chemmap genome-wide mapping of biotinylated doxorubicin binding sites; design: species or system human; conditions: K562 cells
Description: as §1
Probe-1st Ab complex assembly. Compound stock solution in DMSO was diluted to 10 μM in antibody buffer (2 mM EDTA, 0.1% BSA (Sigma, A8577), 0.05% digitonin (EMD Millipore, 300410) in wash buffer). For 5 samples, 20 μL probe solution (10 μM) and 16.7 μL anti-biotin (D5A7) Rabbit mAb (Cell Signaling Technology, 5597, concentration is ˜10 μM) were added to 200 μL antibody buffer and incubated on ice for 1 h to perform a complex at high concentration (probe in excess 1.2:1 to avoid non-specific antibody binding). […]
Bead capture. For 5 samples, 50 μL (JQ1-bio) or 75 μL (G4 ligands and biotinylated Doxorubicin) concanavalin A beads (Bangs Labs, BP531) were washed twice in 1 mL binding buffer (20 mM HEPES pH 7.5, 10 mM KCl, 1 mM CaCl2, 1 mM MnCl2 in nuclease-free water) and resuspended in 75 μL binding buffer. 100 µL of cell suspension were incubated with 10 μL pre-washed concanavalin A beads at 25° C. for 10 min at 600 rpm. Beads-bound cells were gently washed twice with wash buffer, before resuspending in 100 μL probe-1st Ab solution and incubating at 4° C. overnight at 600 rpm.
2nd Ab-Tn5 transposome complexes assembly. For 5 samples, 2.5 μL 2nd Ab (Antibodies-Online, ABIN101961, RRID:AB_10775589) and 5 μL pA-Tn5 were added to 200 μL Dig-300 buffer (20 mM HEPES pH 7.5, 300 mM NaCl, 0.5 mM spermidine, 0.01% digitonin in nuclease-free water supplemented with Complete Protease Inhibitor, EDTA-free) and incubated on ice for 1 h. 300 μL antibody buffer were added to the 2nd-Tn5 complexes solution. (2nd Ab-Tn5 complexes at a ratio of 2:1).
Tagmentation. Cells were washed 3× with 500 μL Dig-wash buffer (0.05% digitonin in wash buffer) and resuspended in 100 μL 2nd Ab-Tn5 transposome solution and incubated at 25° C. for 1 h at 600 rpm. […]

BRD4 [4] = biological target: T1, BRD4; conditions: K562 cells; published data; cited from earlier work
K562 cells = assay: Dox-bio1 Chemmap in Tucidinostat-treated K562 cells; assay type: cell-based, human; conditions: Tucidinostat 1 μM, 72 h
Text: Mycoplasma-free human chronic myelogenous leukemia K562 cells (RRID:CVCL_0004) derived from a person were purchased from ATCC and cultured in RPMI 1640 (Gibco, 21875034) supplemented with 10% heat-inactivated fetal bovine serum (FBS, Gibco, A3840401). Human bone osteosarcoma epithelial U-2 OS cells (RRID:CVCL_0042) derived from a moderately differentiated sarcoma of the tibia of a person osteosarcoma were obtained from ATCC and cultured in DMEM (Gibco, 41966029) supplemented with 10% FBS. Both cell lines were grown in accordance with ENCODE cell culture protocols and periodically tested for mycoplasma contamination and identity confirmed by short tandem repeat (STR) typing. HDAC inhibitors (HDACi) were prepared at 10 mM as stock solution in DMSO. Cells were treated with HDACi dissolved to 1 μM final concentration or an equal concentration of vehicle (0.1% DMSO) for 72 hs.
Cell preparation. U-2 OS cells were detached using accutase and immediately quenched using complete culture media. U-2 OS and K562 suspension cells were harvested by centrifugation and fixed in 0.1% formaldehyde (Thermo Scientific, 28906) in PBS for 2 min at room temperature, followed by quenching with glycine to a final concentration of 75 mM. […]

overlap of high confidence binding sites with G4-seq data (OQS) (DNA G-quadruplex [2]): ~89%
Compound: NCCOc1cc(C(=O)Nc2cc(OCCN)c3ccccc3n2)nc(C(=O)Nc2cc(OCCN)c3ccccc3n2)c1 [PDS, Pyridostatin]
PDS Chemmap sites lost compared to untreated (DNA G-quadruplex [1]): ~6000 | PDS Chemmap sites lost compared to untreated (percent) (DNA G-quadruplex [1]): 60% | ΔTm on dsDNA (dsDNA): 0 °C

overlap of high confidence binding sites with G4-seq data (OQS) (DNA G-quadruplex [2]): ~88%
Compound: C[n+]1cc(NC(=O)c2ccc3ccc4ccc(C(=O)Nc5cc6ccccc6[n+](C)c5)nc4c3n2)cc2ccccc21 [PhenDC3]
ΔTm on dsDNA (dsDNA): 0 °C

JQ1 binding sites observed in each experiment (BRD4 [3]): around 10,000
Compound: Cc1sc2c(c1C)C(c1ccc(Cl)cc1)=N[C@@H](CC(=O)NCCOCCOCCNC(=O)CCCC[C@@H]1SC[C@@H]3NC(=O)N[C@@H]31)c1nnc(C)n1-2 [JQ1-bio]

material recovered compared to other tested probes (genomic DNA; 200 nM, same condition): up to 30 fold | consensus peaks for both Dox-bio1 and ATAC-seq (genomic DNA): 12,896 | peaks located in open chromatin regions mapped by ATAC-seq (genomic DNA): 95% | high confidence Dox-bio1 binding sites (genomic DNA; depending on the probe concentration): around 14k
Compound: COc1cccc2c1C(=O)c1c(O)c3c(c(O)c1C2=O)C[C@@](O)(C(=O)COC(=O)CCCC(=O)NCCOCCOCCOCCOCCNC(=O)CCCC[C@H]1SC[C@H]2NC(=O)N[C@H]21)C[C@@H]3O[C@H]1C[C@H](N)[C@H](O)[C@H](C)O1 [Dox-bio1]

Compound: C[n+]1cc(NC(=O)c2ccc3ccc4c(NCCCCNC(=O)CCc5cn(CCOCCOCCOCCNC(=O)CCCC[C@@H]6SC[C@@H]7NC(=O)N[C@@H]76)nn5)cc(C(=O)Nc5cc6ccccc6[n+](C)c5)nc4c3n2)cc2ccccc21 [PhenDC3-bio]
ΔTm on dsDNA (dsDNA): 0 °C

Compound: Cc1sc2c(c1C)C(c1ccc(Cl)cc1)=N[C@@H](CC(=O)NCCCNC(=O)OC1CC/C=C\CCC1)c1nnc(C)n1-2 (stereo partly shown) [JQ1-TCO]
signal averaged at BRD4 CUT&Tag high confidence loci (BRD4 [4]): close to the baseline

Compound: NCCOc1cc(NC(=O)c2cc(OCCNC(=O)CCOCCOCCOCCOCCNC(=O)CCCC[C@@H]3SC[C@@H]4NC(=O)N[C@@H]43)cc(C(=O)Nc3cc(OCCN)c4ccccc4n3)n2)nc2ccccc12 [PDS-bio]
ΔTm on dsDNA (dsDNA): 0 °C

Compound: Nc1cc(F)ccc1NC(=O)c1ccc(CNC(=O)/C=C/c2cccnc2)cc1 [Tucidinostat]
effect on doxorubicin binding (differential binding analysis) (K562 cells): enhances the binding of doxorubicin | Dox-bio1 binding sites within initial open chromatin region (K562 cells; 95% in vehicle group): 42%
